Measured values published in patent US5688773A, “Method of selectively destroying neoplastic cells” (priority 1994, dated 1997).
Values joined by “and” are separate entries in the source; they are usually repeats but may differ in a detail not shown here. Equal values may be shown once.

Columns and labels:
[1] = tested on: C6 glioma plus CRELacZ cells; assay: Brain tumor model, fibroblast graft then intrathecal/intratumoral CPA; assay type: in vivo, athymic mice
Procedure: (§1) For intracerebral injections, mice were anesthetized with an intraperitoneal injection of Ketamin (100 mg per kg body weight) (Parke Davis, NJ) and Xylazine (20 mg per kg body weight) (Mobay Corp., KS). Surgical procedures were performed in a sterile fashion. After immobilizing the rodent in stereotactic apparatus (Kopf), a small incision was made in the skin overlying the skull. C6 glioma cells (10^3 cells in 2 μl) were stereotactically inoculated approximately 0.5 mm frontal and 0.5 mm right lateral to the bregma using a Hamilton syringe. The inoculation period was 5 minutes, with 2 minutes allowed for needle retraction. Three days later, the same burrhole was employed for the stereotactic grafting of 5×10^6 CRELacZ cells (cell line kindly provided by Dr. R. Mulligan, MIT) or 5×10^6 R450-2 cells in 25 μl of DMEM. Four, eight, and eleven days after this last injection, CPA (0.3 mg in 5 μl) was administered stereotactically, through the same skull opening, into the tumor and meningeal space of mice from both CRELacZ and R450-2 groups. Injections were carried out stereotactically over a period of ten minutes, with five minutes allowed for needle retraction. Animals were sacrificed, ten days after injection of the last dose of prodrug, by perfusing through the left ventricle approximately 3-5 mL of 100 mM sodium phosphate in 0.9% sodium chloride, pH 7.3, followed by 4% paraformaldehyde in 100 mM sodium phosphate, pH 7.3. Brains were carefully dissected from the skull and jaws of the animals, prior to placement overnight in 4% paraformaldehyde in 100 mM sodium phosphate, pH 7.3. For cryopreservation, brains were placed in 20% glycerol/10% dimethylsulfoxide in 100 mM sodium phosphate, pH 7.3, and then cut in 50 micron sections with a sledge microtome. Every sixth section was mounted onto gelatin-coated slides and stained with cresyl violet. To calculate brain tumor volumes, a computerized-image analyzer was used to scan tumor areas on each section. This analysis was performed in a blind fashion. Manual contouring was performed to distinguish tumor from normal brain cysts, or processing artifacts. Tumor volumes were obtained by multiplying the average tumor area from all sections in a brain by the distance (0.3 mm) between and including each section.

[2] = tested on: C6 glioma plus R450-2 cells; assay: as above; assay type: in vivo, athymic mice
Procedure: as §1

[3] = tested on: R450-2 (ΨCRE-derived clone, cytochrome P450 2B1); assay: Growth in the presence of 500 μM cyclophosphamide; details: 500 μM CPA, four days
C6 cells = assay: Conditioned medium from co-cultures added to naive C6 cells; assay type: cell-based, rat; details: CM from co-cultures with 0, 10, or 50% P450 2B1 cells after four-day CPA
Procedure: Co-culture assay: Co-cultures of C6-P450 and C6 cells were incubated in triplicate at different ratios (where 0, 10, 50, 90, and 100% of the cells were C6-P450 cells) to achieve a total number of 2×10^6 cells/10 cm dish. After 24 hours, 0.5 mM CPA was added and four days later, cells were counted as previously described. To compare the killing achieved by cell contact with that obtained by exposure to conditioned medium, the supernatant from each co-culture was harvested, filtered through 0.45 μm membrane filters, mixed in a 1:1 ratio with 5 mL of fresh medium and added to overnight cultures of C6 cells (2×10^6 cells/10 cm dish in triplicate). Four days later, C6 cells were washed, harvested and counted. To determine the specificity of the cell-mediated killing effect from the co-culture assays, C6 cells were incubated overnight with C6 cells that expressed the neomycin phosphotransferase gene (C6-Neo), with irradiated C6 cells, with irradiated C6-Neo, and with irradiated C6-P450 cells. γ-irradiation was performed by exposing cells to a total of 6000 rads emitted by a ^51 chromium source.

[4] = tested on: cytochrome P450 2B1-negative cells (parental 9L and 9L-Z); assay: Drug sensitivity of cultured 9L cells; assay type: cell-based, rat; details: millimolar concentrations
Procedure: To test for drug sensitivity, 1×10^5 cells were plated in 30-mm tissue culture plates (Falcon 3046) in duplicate. Drugs were added 18-24 hours after seeding. Cells were allowed to grow for times ranging up to 5 days after drug treatment, and the final cell number was then determined. Cells were rinsed with phosphate buffered saline or Hank's buffered saline, dispersed using trypsin-EDTA (GIBCO/BRL, Inc.), and then counted with a hemocytometer. Results are expressed as a growth ratio, i.e., the number of cells in plates containing drug as a percentage of the corresponding drug-free controls (mean±range of duplicate determinations).

C6BAG and C6VIK cells = assay: Ganciclovir treatment of combined subcutaneous tumors; assay type: in vivo, nude mice; details: 14 day course, 25 mg/kg twice a day intraperitoneally
Procedure: Sequential injections of 10^5 C6BAG cells followed immediately by 10^6 C6BU1 cells, C6VIK cells, or C6VIKWT cells at the same injection site, were carried out as above using 20 animals for each combination. After the tumors had reached 1 cm in diameter, ganciclovir treatment was begun for 14 days, 25 mg/kg twice a day intraperitoneally in half of each group, with the other half receiving PBS intraperitoneally as a control. Tumor volume was assessed as the percentage increase over the volume at the beginning of treatment through 17 days.

[5] = CPA 0.3 mg on days 4, 8, 11 after graft, sacrifice ten days after last dose
[6] = individual animals, after cyclophosphamide administration

| SMILES | animals with extensive and friable meningeal tumor [1, 5] | Tumor necrosis of parenchymal tumors ([1]; histopathology of six brains) | Volumes of parenchymal brain tumors [1, 6] | animals with a small residual meningeal mass ([2]; CPA 0.3 mg on days 4, 8, 11 after graft) | animals with no evidence of meningeal tumor [2, 5] | brains with extensive tumor necrosis ([2]; histopathology of six brains) | Volumes of parenchymal brain tumors [2, 6] | brain tumor volume as fraction of average volume in lacZ-producer controls ([2]; three of six animals, listed as CPA) | Cell destruction [3] | Inhibition of proliferation of C6 cells (C6 cells) | Effects on growth [4] | Tumor volume compared to C6BAG and C6BU1 tumors (C6BAG and C6VIK cells) |
| --- | --- | --- | --- | --- | --- | --- | --- | --- | --- | --- | --- | --- |
| O=P1(N(CCCl)CCCl)NCCCO1 (stereo not drawn) [cyclophosphamide] | 8/8 | essentially no tumor necrosis | 47.5 mm^3 and 51.5 mm^3 and 54.7 mm^3 and 62.4 mm^3 and 72.6 mm^3 and 85.1 mm^3 | 1/8 | 7/8 | 3/6 | 3.2 mm^3 and 14.2 mm^3 and 28.4 mm^3 and 87.4 mm^3 and 105.3 mm^3 and 171.4 mm^3 | approximately 1/20 and 1/5 and 1/2 | destroyed completely | no inhibition | no adverse effects |  |
| Nc1nc(O)c2ncn(COC(CO)CO)c2n1 [ganciclovir] |  |  |  |  |  |  |  |  |  |  |  | significant decrease in the tumor volume |
